Assays:
Type in all cases: functional
MOLT-4 [1] = experiment: Cytotoxicity against human MOLT4 cells assessed as cell growth at 10 uM after 48 hrs by sulforhodamine B assay relative to control; conditions: MOLT-4, 48 h, read-out: Activity
SR = experiment: Cytotoxicity against human SR cells assessed as cell growth at 10 uM after 48 hrs by sulforhodamine B assay relative to control; conditions: read-out: Activity
TK-10 [2] = experiment: Cytotoxicity against human TK10 cells assessed as cell growth at 0.1 uM after 48 hrs by sulforhodamine B assay relative to control; conditions: TK-10, 48 h, read-out: Activity
A549 = experiment: Cytotoxicity against human A549/ATCC cells assessed as cell growth at 1 uM after 48 hrs by sulforhodamine B assay relative to control; conditions: A549, 48 h, read-out: Activity
MOLT-4 [3] = experiment: Cytotoxicity against human MOLT4 cells assessed as cell growth at 0.01 uM after 48 hrs by sulforhodamine B assay relative to control; conditions: MOLT-4, 48 h, read-out: Activity
PC-3 = experiment: Cytotoxicity against human PC3 cells assessed as cell growth at 0.01 uM after 48 hrs by sulforhodamine B assay relative to control; conditions: PC-3, 48 h, read-out: Activity
Hs-578T [4] = experiment: Cytotoxicity against human Hs 578T cells assessed as cell growth at 0.01 uM after 48 hrs by sulforhodamine B assay relative to control; conditions: read-out: Activity
786-0 [5] = experiment: Cytotoxicity against human 786-0 cells assessed as cell growth at 100 uM after 48 hrs by sulforhodamine B assay relative to control; conditions: 786-0, 48 h, read-out: Activity
OVCAR-4 [6] = experiment: Cytotoxicity against human OVCAR4 cells assessed as cell growth at 1 uM after 48 hrs by sulforhodamine B assay relative to control; conditions: OVCAR-4, 48 h, read-out: Activity
SK-MEL-28 [7] = experiment: Cytotoxicity against human SK-MEL-28 cells assessed as growth inhibition after 48 hrs by sulforhodamine B assay; conditions: SK-MEL-28, 48 h
TK-10 [8] = experiment: Cytotoxicity against human TK10 cells assessed as cell growth at 100 uM after 48 hrs by sulforhodamine B assay relative to control; conditions: TK-10, 48 h, read-out: Activity
786-0 [9] = experiment: Cytotoxicity against human 786-0 cells assessed as cell growth at 0.01 uM after 48 hrs by sulforhodamine B assay relative to control; conditions: 786-0, 48 h, read-out: Activity
OVCAR-8 = experiment: Cytotoxicity against human OVCAR8 cells assessed as cell growth at 10 uM after 48 hrs by sulforhodamine B assay relative to control; conditions: OVCAR-8, 48 h, read-out: Activity
IGROV-1 = experiment: Cytotoxicity against human IGROV1 cells assessed as growth inhibition after 48 hrs by sulforhodamine B assay; conditions: IGROV-1, 48 h
HCC 2998 = experiment: Cytotoxicity against human HCC2998 cells assessed as cell growth at 10 uM after 48 hrs by sulforhodamine B assay relative to control; conditions: HCC 2998, 48 h, read-out: Activity
SK-MEL-5 [10] = experiment: Cytotoxicity against human SK-MEL-5 cells assessed as cell growth at 0.01 uM after 48 hrs by sulforhodamine B assay relative to control; conditions: SK-MEL-5, 48 h, read-out: Activity
T47D = experiment: Cytotoxicity against human T47D cells assessed as cell growth at 100 uM after 48 hrs by sulforhodamine B assay relative to control; conditions: read-out: Activity
M14 [11] = experiment: Cytotoxicity against human M14 cells assessed as cell growth at 0.01 uM after 48 hrs by sulforhodamine B assay relative to control; conditions: M14, 48 h, read-out: Activity
UACC-62 = experiment: Cytotoxicity against human UACC62 cells assessed as cell growth at 0.01 uM after 48 hrs by sulforhodamine B assay relative to control; conditions: UACC-62, 48 h, read-out: Activity
OVCAR-5 [12] = experiment: Cytotoxicity against human OVCAR5 cells assessed as cell growth at 10 uM after 48 hrs by sulforhodamine B assay relative to control; conditions: OVCAR-5, 48 h, read-out: Activity
HT-29 = experiment: Cytotoxicity against human HT-29 cells assessed as cell growth at 0.1 uM after 48 hrs by sulforhodamine B assay relative to control; conditions: HT-29, 48 h, read-out: Activity
COLO 205 [13] = experiment: Cytotoxicity against human COLO205 cells assessed as cell growth at 100 uM after 48 hrs by sulforhodamine B assay relative to control; conditions: COLO 205, 48 h, read-out: Activity
OVCAR-3 [14] = experiment: Cytotoxicity against human OVCAR3 cells assessed as cell growth at 100 uM after 48 hrs by sulforhodamine B assay relative to control; conditions: OVCAR-3, 48 h, read-out: Activity
ACHN [15] = experiment: Cytotoxicity against human ACHN cells assessed as growth inhibition after 48 hrs by sulforhodamine B assay
COLO 205 [16] = experiment: Cytotoxicity against human COLO205 cells assessed as cell growth at 0.01 uM after 48 hrs by sulforhodamine B assay relative to control; conditions: COLO 205, 48 h, read-out: Activity
OVCAR-5 [17] = experiment: Cytotoxicity against human OVCAR5 cells assessed as growth inhibition after 48 hrs by sulforhodamine B assay; conditions: OVCAR-5, 48 h
KM12 = experiment: Cytotoxicity against human KM12 cells assessed as cell growth at 0.1 uM after 48 hrs by sulforhodamine B assay relative to control; conditions: KM12, 48 h, read-out: Activity
MCF7 = experiment: Cytotoxicity against human MCF7 cells assessed as cell growth at 0.1 uM after 48 hrs by sulforhodamine B assay relative to control; conditions: MCF7, 48 h, read-out: Activity
SK-MEL-28 [18] = experiment: Cytotoxicity against human SK-MEL-28 cells assessed as cell growth at 0.1 uM after 48 hrs by sulforhodamine B assay relative to control; conditions: SK-MEL-28, 48 h, read-out: Activity
Hs-578T [19] = experiment: Cytotoxicity against human Hs 578T cells assessed as cell growth at 10 uM after 48 hrs by sulforhodamine B assay relative to control; conditions: read-out: Activity
SF-539 = experiment: Cytotoxicity against human SF539 cells assessed as cell growth at 0.01 uM after 48 hrs by sulforhodamine B assay relative to control; conditions: SF-539, 48 h, read-out: Activity
ACHN [20] = experiment: Cytotoxicity against human ACHN cells assessed as cell growth at 1 uM after 48 hrs by sulforhodamine B assay relative to control; conditions: read-out: Activity
SK-MEL-5 [21] = experiment: Cytotoxicity against human SK-MEL-5 cells assessed as cell growth at 0.1 uM after 48 hrs by sulforhodamine B assay relative to control; conditions: SK-MEL-5, 48 h, read-out: Activity
OVCAR-4 [22] = experiment: Cytotoxicity against human OVCAR4 cells assessed as cell growth at 0.1 uM after 48 hrs by sulforhodamine B assay relative to control; conditions: OVCAR-4, 48 h, read-out: Activity
DU-145 = experiment: Cytotoxicity against human DU145 cells assessed as growth inhibition after 48 hrs by sulforhodamine B assay; conditions: DU-145, 48 h
M14 [23] = experiment: Cytotoxicity against human M14 cells assessed as cell growth at 0.1 uM after 48 hrs by sulforhodamine B assay relative to control; conditions: M14, 48 h, read-out: Activity
OVCAR-3 [24] = experiment: Cytotoxicity against human OVCAR3 cells assessed as cell growth at 10 uM after 48 hrs by sulforhodamine B assay relative to control; conditions: OVCAR-3, 48 h, read-out: Activity

Work on `COc1cc(-c2cc(/C=C/C(=O)c3ccc4c(c3)OCO4)[nH]n2)cc(OC)c1OC` yielded a growth at 10 µM (MOLT-4 [1]) of -4%, a growth at 10 µM (SR) of 6% and a growth at 0.1 µM (TK-10 [2]) of 87%. For the same molecule, the growth at 1 µM (A549) was 92%, the growth at 0.01 µM (MOLT-4 [3]) was 97% and the growth at 0.01 µM (PC-3) was 100%. It also gave a growth at 0.01 µM (Hs-578T [4]) of 93%, a growth at 100 µM (786-0 [5]) of -30% and a growth at 1 µM (OVCAR-4 [6]) of 82%. For the same molecule, the LC50 (SK-MEL-28 [7]) was > 100 µM, the TGI (SK-MEL-28 [7]) was 7.34 µM and the growth at 100 µM (TK-10 [8]) was -47%. The growth at 0.01 µM (786-0 [9]) was 96%, the growth at 10 µM (OVCAR-8) was 2% and the LC50 (IGROV-1) was > 100 µM. It also gave a TGI (IGROV-1) of 62.1 µM, a growth at 10 µM (HCC 2998) of -87% and a growth at 0.01 µM (SK-MEL-5 [10]) of 98%. The growth at 100 µM (T47D) was -19%, the growth at 0.01 µM (M14 [11]) was 97% and the growth at 0.01 µM (UACC-62) was 98%. For the same molecule, the growth at 10 µM (OVCAR-5 [12]) was 16%, the growth at 0.1 µM (HT-29) was 100% and the growth at 100 µM (COLO 205 [13]) was -100%. For the same molecule, the growth at 100 µM (OVCAR-3 [14]) was -38%, the LC50 (ACHN [15]) was 7.32 µM and the TGI (ACHN [15]) was 3.71 µM. For the same molecule, the growth at 0.01 µM (COLO 205 [16]) was 105%, the LC50 (OVCAR-5 [17]) was > 100 µM and the TGI (OVCAR-5 [17]) was 93.5 µM. The growth at 0.1 µM (KM12) was 95%, the growth at 0.1 µM (MCF7) was 94% and the growth at 0.1 µM (SK-MEL-28 [18]) was 106%. It also gave a growth at 10 µM (Hs-578T [19]) of 17%, a growth at 0.01 µM (SF-539) of 98% and a growth at 1 µM (ACHN [20]) of 96%. It also gave a growth at 0.1 µM (SK-MEL-5 [21]) of 97%, a growth at 0.1 µM (OVCAR-4 [22]) of 92% and a TGI (DU-145) of 9.56 µM. For the same molecule, the CC50 (DU-145; read-out: LC50 (the source's name)) was > 100 µM, the growth at 0.1 µM (M14 [23]) was 97% and the growth at 10 µM (OVCAR-3 [24]) was 4%.
